Results from ChEMBL document CHEMBL4725390, “Asymmetrically Substituted Quadruplex-Binding Naphthalene Diimide Showing Potent Activity in Pancreatic Cancer Models” (ACS Med Chem Lett, 2020).
Active and inactive are the calls of the source. No cut-off for these calls is given here.

Key:
CAPAN-1 = experiment: Potency index, ratio of 2,7-bis(3-morpholinopropyl)-4-((2-(pyrrolidin-1-yl)ethyl)amino)benzo[lmn][3,8]phenanthroline-1,3,6,8(2H,7H)-tetraone IC50 to test compound IC50 for human Capan1 cells measured after 96 hrs by SRB assay; type: functional
MIA PaCa-2 [1] = experiment: Antitumor activity against human MIAPaCa2 cells xenografted in mouse assessed as change in tumor volume at 1 mg/kg, iv administered once per week for 28 days and measured at day 28 by Caliper method relative to control; type: functional; settings: time 28 day
Mus musculus [2] = experiment: Down regulation of MAPK11 expression in mouse xenografted with human MIAPaCa2 cells at 1 mg/kg, iv administered twice per week for 28 days and measured on day 28 by Western blot analysis; type: functional, organism-based; settings: time 28.0 day
MIA PaCa-2 [3] = experiment: Downregulation of TNF signaling pathway related gene expression in human MIAPaCa2 cells at 40 nM after 6 hrs by RNA sequencing analysis; type: functional, cell-based
[4] = Downregulation of AXIN1 mRNA expression in human MIAPaCa2 cells at 40 nM after 24 hrs by RNA sequencing analysis relative to control; type: functional, MIA PaCa-2
[5] = Toxicity in mouse xenografted with human MIAPaCa2 cells assessed as drug tolerability at 1 mg/kg, iv administered once per week for 28 days; type: organism-based; settings: in vivo, 672 h, time 28 day
MIA PaCa-2 [6] = experiment: Downregulation of NF-kappaB signalling pathway related gene expression in human MIAPaCa2 cells at 40 nM after 6 hrs by RNA sequencing analysis; type: functional, cell-based
MIA PaCa-2 [7] = experiment: Antitumor activity against human MIAPaCa2 cells xenografted in mouse assessed as mean tumor volume at 1 mg/kg, iv administered once per week for 28 days and measured at day 53 by Caliper method (reference value: 1.60 +/- 0.44 cm3); type: functional; settings: time 28 day
Quadruplex DNA [8] = experiment: Binding affinity to G4 quadruplex DNA in human PANC1 cells assessed as BG4 foci formation at 400 to 800 nM after 24 hrs by immunofluorescence based confocal microscopic analysis; type: cell-based; settings: PANC-1, dose nM 400-800, time 24.0 hrs
MIA PaCa-2 [9] = experiment: Downregulation of Rap1 signaling pathway related gene expression in human MIAPaCa2 cells at 40 nM after 24 hrs by RNA sequencing analysis; type: functional, cell-based
MIA PaCa-2 [10] = experiment: Downregulation of DNA replication associated gene expression in human MIAPaCa2 cells at 40 nM after 24 hrs by RNA sequencing analysis; type: functional, cell-based
[11] = Volume of distribution at steady state in mouse xenografted with human MIAPaCa2 cells at 0.96 mg/kg, iv administered as single dose; type: ADME, organism-based; settings: in vivo, read-out: Vdss
MIA PaCa-2 [12] = experiment: Antitumor activity against human MIAPaCa2 cells xenografted in mouse assessed as change in tumor volume at 1 mg/kg, iv administered once per week for 28 days and measured at day 53 by Caliper method relative to control; type: functional; settings: time 28 day
MIA PaCa-2 [13] = experiment: Downregulation of Rap1 signaling pathway related gene expression in human MIAPaCa2 cells at 40 nM after 6 hrs by RNA sequencing analysis; type: functional, cell-based
MIA PaCa-2 [14] = experiment: Downregulation of hippo signaling pathway related gene expression in human MIAPaCa2 cells at 40 nM after 6 hrs by RNA sequencing analysis; type: functional, cell-based
[15] = Downregulation of AXIN1 mRNA expression in human MIAPaCa2 cells at 40 nM after 6 hrs by RNA sequencing analysis relative to control; type: functional, MIA PaCa-2
Mus musculus [16] = experiment: Up regulation of cleaved PARP protein expression in mouse xenografted with human MIAPaCa2 cells at 1 mg/kg, iv administered twice per week for 28 days measured on day 28 by Western blot analysis; type: functional, organism-based; settings: time 28.0 day
[17] = AUC in mouse xenografted with human MIAPaCa2 cells at 0.96 mg/kg, iv administered as single dose; type: ADME, organism-based; design: dose 0.96 mg/kg; settings: in vivo
PANC-1 = experiment: Potency index, ratio of 2,7-bis(3-morpholinopropyl)-4-((2-(pyrrolidin-1-yl)ethyl)amino)benzo[lmn][3,8]phenanthroline-1,3,6,8(2H,7H)-tetraone IC50 to test compound IC50 for human PANC1 cells measured after 96 hrs by SRB assay; type: functional
Mus musculus [18] = experiment: Effect on hTERT expression in mouse xenografted with human MIAPaCa2 cells at 1 mg/kg, iv administered once per week for 28 days and measured on day 28 by Western blot analysis; type: functional, organism-based; settings: time 28.0 day
MIA PaCa-2 [19] = experiment: Antitumor activity against human MIAPaCa2 cells xenografted in mouse assessed as change in tumor volume at 15 mg/kg, iv administered twice per week for 28 days and measured at day 53 by Caliper method relative to control; type: functional; settings: time 28 day
Quadruplex DNA [20] = experiment: Binding affinity to G4 quadruplex DNA in human PANC1 cells assessed as increase in number of BG4 foci at 100 nM after 24 hrs by immunofluorescence based confocal microscopic analysis; type: cell-based; settings: PANC-1
[21] = Downregulation of hTERT mRNA expression in human MIAPaCa2 cells at 40 nM after 24 hrs by RNA sequencing analysis relative to control; type: functional, MIA PaCa-2
[22] = Antitumor activity in KPC-induced PDAC mouse model expressing active KRASG12D and mutant p53R172H assessed as median survival time at 1 mg/kg, iv administered once per week up to 3 weeks (reference value: 12 days); type: functional
[23] = Toxicity in mouse xenografted with human MIAPaCa2 cells assessed as effect on neuronal clinical signs at 1 mg/kg, iv administered once per week for 28 days; type: organism-based; settings: in vivo, 672 h, time 28 day
MIA PaCa-2 [24] = experiment: Downregulation of cell cycle associated gene expression in human MIAPaCa2 cells at 40 nM after 24 hrs by RNA sequencing analysis; type: functional, cell-based
[25] = Downregulation of APC2 mRNA expression in human MIAPaCa2 cells at 40 nM after 6 hrs by RNA sequencing analysis relative to control; type: functional, MIA PaCa-2

In the case of `O=C1c2cc(-c3ccc(CN4CCCC4)cc3)c3c4c(cc(NCCN5CCCC5)c(c24)C(=O)N1CCCN1CCOCC1)C(=O)N(CCCN1CCOCC1)C3=O` [QN-302], the “Ratio IC50” value (CAPAN-1) is reported as 5, the Activity (MIA PaCa-2 [1]) is reported as -82.2% and the inhibition (Mus musculus [2]) is reported as “Active”. For the same compound, the inhibition (MIA PaCa-2 [3]) was “Active”, the log2FC [4] was 0.39 and the Activity [5] was “Non-Toxic”. For the same compound, the inhibition (MIA PaCa-2 [6]) was “Active”, the Activity (MIA PaCa-2 [7]) was 0.17 cm3 and the Activity (Quadruplex DNA [8]) was “inactive”. For the same compound, the inhibition (MIA PaCa-2 [9]) was “Active”, the inhibition (MIA PaCa-2 [10]) was “Active” and the Vd [11] was 1.2 L/kg. The Activity (MIA PaCa-2 [12]) was -89.83%, the inhibition (MIA PaCa-2 [13]) was “Active” and the inhibition (MIA PaCa-2 [14]) was “Active”. The log2FC [15] was 1.59, the Activity (Mus musculus [16]) was “Active” and the AUC [17] was 5860 ng·h/mL. The “Ratio IC50” value (PANC-1) was 10, the Activity (Mus musculus [18]) was “inactive” and the Activity (MIA PaCa-2 [19]) was -78.1%. For the same compound, the Activity (Quadruplex DNA [20]) was “Active”, the log2FC [21] was 1.02 and the MST [22] was 24 days. The Activity [23] was “Non-Toxic”, the inhibition (MIA PaCa-2 [24]) was “Active” and the log2FC [25] was 1.88.
